# Earlier results, collected in patent US20090215676A1, “Method of treatment” (priority 2005, published 2009).
# Like-named read-outs stand apart in the source and are kept apart here.
# What was measured:
# GH and IGF-1 levels = conditions: for acromegalic patients in whom GH and IGF-1 levels are reduced: human, in vivo; for share of responding patients whose GH and IGF-1 levels are reduced to normal levels (full responders): of the approximately 90% who respond
# IGF-I levels = conditions: for daily pegvisomant dose needed: former pegvisomant registration studies
# IGF-I [1] = conditions: once weekly pegvisomant dose of 80 mg, monotherapy
# IGF-I [2] = conditions: alternate day administration, monotherapy; of 10 patients
# insulin sensitivity = conditions: in vivo
Molecule,acromegalic patients in whom GH and IGF-1 levels are reduced (GH and IGF-1 levels),share of responding patients whose GH and IGF-1 levels are reduced to normal levels (full responders) (GH and IGF-1 levels),daily pegvisomant dose needed (IGF-I levels; one subject) [mg],daily dose needed by the average patient (IGF-I levels; pegvisomant monotherapy),"acromegalics with IGF-I levels normalized (IGF-I levels; pegvisomant monotherapy, listed as PEGVISOMANT)","acromegalics with IGF-I levels normalized (IGF-I levels; pegvisomant monotherapy, listed as Pegvisomant) [%]",daily pegvisomant dose needed (IGF-I levels; two subjects) [mg],share of patients with IGF-I normalized (IGF-I [1]),patients in whom the regimen failed to maintain IGF-I within the age-adjusted normal range (IGF-I [2]) [patients],effect on insulin sensitivity (insulin sensitivity),effect on tumor growth (tumor size; clinical experience),effect on mean tumor size (tumor size; follow-up with pegvisomant monotherapy to date)
CC(C)[C@@H]1NC(=O)[C@H](CCCCN)NC(=O)[C@@H](Cc2c[nH]c3ccccc23)NC(=O)[C@H](Cc2ccc(O)cc2)NC(=O)[C@@H](NC(=O)[C@H](N)Cc2ccc3ccccc3c2)CSSC[C@@H](C(=O)N[C@H](C(N)=O)[C@@H](C)O)NC1=O [LANREOTIDE],approximately 90%,one-half to two-thirds,,,,,,,,,,
C[C@@H](O)[C@@H]1NC(=O)[C@H](CCCCN)NC(=O)[C@@H](Cc2c[nH]c3ccccc23)NC(=O)[C@H](Cc2ccccc2)NC(=O)[C@@H](NC(=O)[C@H](N)Cc2ccccc2)CSSC[C@@H](C(=O)N[C@H](CO)[C@@H](C)O)NC1=O [OCTREOTIDE],approximately 90%,one-half to two-thirds,,,,,,,,,,
pegvisomant,,,35,approximately 20 mg,75%-95%,> 90,40,less than one-third,7,improves insulin sensitivity as compared to somatostatin analogues,does not prevent tumor growth in some patients,do not indicate that pegvisomant increases mean tumor size
